These results are taken from article PMC10321483 (Chemical Science, 2023).

SMILES strings stand for the structures. Where “and” joins values, the source holds several entries; their conditions need not be identical. Identical values can stand only once. Like-named read-outs stand apart in the source and are kept apart here.

One assay concerns the target T1, BlaC (Mycobacterium tuberculosis, UniProt P9WKD3).
T1 construct: made in house; host or cells: E. coli
The assay can be described thus: BlaC fluorogenic inhibition assay with FC5 (dose-response). Type of assay: biochemical. How it is done:
Two types of controls were used. […] In control 2, the BlaC mixture was substituted with the assay buffer. This mixture was incubated for 30 minutes at room temperature without shaking. […] Data were analysed using ActivityBase (IDBS).

Assay [1] addresses T2, LdtMt2 (Mycobacterium tuberculosis, UniProt I6Y9J2). The assay can be described thus: biochemical. Type of assay: biochemical. More on the design: made in house; host or cells: E. coli.
Assay [2] deals with T2, LdtMt2. The assay can be described thus: biochemical. The arrangement: made in house; host or cells: E. coli. Type of assay: binding. Conditions: for Tm: melting point of LdtMt2 after pre-incubation with the compound: pH 7.5, in °C (unit assumed). As to the method: LdtMt2 (5 μM) was incubated with the inhibitor (500 μM) in assay buffer (50 mM tris pH 7.5) for 30 minutes at room temperature in 96-well white PCR plates (25 μL final volume, Starlab). SYPRO Orange (final concentration 6×, according to manufacturer's definition, Invitrogen) was then added and the plate was sealed using a transparent plastic film (Polyolefin StarSeal, Starlab). Fluorescence was monitored (with λex = 492 nm and λem = 610 nm) using a CFX96 Touch Real-Time PCR Detection System (Bio-Rad), while the temperature was increased from 20 to 95 °C in increments of 0.2 °C. Melting temperatures (Tms) were determined using the CFX Maestro Software (Bio-Rad).

[3] abbreviates: Table S3 tool compounds, 10 min incubation, 2.5 nM BlaC, 2.5 µM FC5, n=4, read-out: pIC50 BlaC (mean ± SD) (converted).
Where [4] appears, read: Table S4 HTS validation, 30 minutes inhibitor pre-incubation, n=6, read-out: pIC50 LdtMt2 (mean ± SD) (converted).
Setting [5] is: Table S4 HTS validation, 30 minutes inhibitor pre-incubation, n=8, read-out: pIC50 BlaC (mean ± SD) (converted).
The mark [6] stands for this setting: Table S3 tool compounds, 10 min incubation, 2.5 nM BlaC, 2.5 µM FC5, n=4.
Where [7] appears, read: Table S4 HTS validation, 30 minutes inhibitor pre-incubation, n=6.

T2 sequence (I6Y9J2 56-408): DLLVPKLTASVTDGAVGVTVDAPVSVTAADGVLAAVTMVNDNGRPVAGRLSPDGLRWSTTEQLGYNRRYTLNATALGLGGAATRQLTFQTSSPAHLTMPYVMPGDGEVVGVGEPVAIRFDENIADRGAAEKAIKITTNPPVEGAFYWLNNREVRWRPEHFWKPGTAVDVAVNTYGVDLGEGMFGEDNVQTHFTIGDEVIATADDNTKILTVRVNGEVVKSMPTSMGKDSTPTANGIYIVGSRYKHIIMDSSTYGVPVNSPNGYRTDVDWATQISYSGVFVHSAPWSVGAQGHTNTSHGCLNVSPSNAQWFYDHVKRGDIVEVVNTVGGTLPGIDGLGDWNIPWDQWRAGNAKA
T1 sequence (P9WKD3 35-307): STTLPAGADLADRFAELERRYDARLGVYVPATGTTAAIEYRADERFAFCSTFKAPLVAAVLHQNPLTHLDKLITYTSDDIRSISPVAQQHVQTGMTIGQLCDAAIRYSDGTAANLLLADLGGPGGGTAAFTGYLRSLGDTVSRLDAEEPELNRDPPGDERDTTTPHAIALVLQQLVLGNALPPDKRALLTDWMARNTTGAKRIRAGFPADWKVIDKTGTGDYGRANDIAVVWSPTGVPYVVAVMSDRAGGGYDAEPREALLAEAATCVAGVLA

Consider `O=[Se](O)c1ccccc1` [Benzeneseleninic acid, reference compound], for which the IC50 on BlaC (setting [3]) was greater than 100000 nM; on LdtMt2 [1] (setting [4]) it was 3550 nM; on LdtMt2 [1] (pIC50 LdtMt2 (mean ± SD)), 10000 nM.
For `C[C@@H](O)[C@H]1C(=O)N2C(C(=O)[O-])=C(SC3Cn4cnc[n+]4C3)[C@H](C)[C@H]12` (stereo partly drawn) [Biapenem, reference compound], the IC50 at BlaC (setting [3]) was 3090 nM; on BlaC (setting [5]), 479 nM; on LdtMt2 [1] (setting [4]), 2880 nM; against LdtMt2 [1] (pIC50 LdtMt2 (mean ± SD)), 79400 nM.
Consider `CC1(C)S[C@@H]2[C@H](NC(=O)C(C(=O)O)c3ccccc3)C(=O)N2[C@H]1C(=O)O` (stereo partly drawn) [Carbenicillin, reference compound], for which the IC50 at BlaC (setting [3]) and at LdtMt2 [1] (pIC50 LdtMt2 (mean ± SD)) was greater than 100000 nM each time.
Consider `CO/N=C(\C(=O)N[C@@H]1C(=O)N2C(C(=O)O)=C(COC(C)=O)CS[C@H]12)c1csc(N)n1` [Cefotaxime, reference compound], for which the IC50 on BlaC (setting [3]) and against LdtMt2 [1] (pIC50 LdtMt2 (mean ± SD)) was greater than 100000 nM in each case.
On to `CC(C)(O/N=C(\C(=O)N[C@@H]1C(=O)N2C(C(=O)[O-])=C(C[n+]3ccccc3)CS[C@H]12)c1csc(N)n1)C(=O)O` [Ceftazidime], for which the IC50 on BlaC (setting [3]) is 39800 nM; on BlaC (setting [5]), 12000 nM; against LdtMt2 [1] (pIC50 LdtMt2 (mean ± SD)) it was greater than 100000 nM.
`CO/N=C(\C(=O)N[C@@H]1C(=O)N2C(C(=O)O)=C(CSC(=O)c3ccco3)CS[C@H]12)c1csc(N)n1` [Ceftiofur, reference compound]: the IC50 on BlaC (setting [3]) and against LdtMt2 [1] (pIC50 LdtMt2 (mean ± SD)) was greater than 100000 nM in each case.
In the case of `Cc1ccc(C=CC(=O)N2CC(=O)Nc3ccccc32)o1` [Compound 10], the “LE (ligand efficiency)” value at LdtMt2 [1] amounted to 0.54.
For the compound `Cc1ccccc1NC(=O)C=CC(N)=O` [Compound 14], the “pIC50 BlaC” value against BlaC (Table S5 HTS hits, 30 minute inhibitor pre-incubation, two independent repeats) was less than 4.0. The “LE (ligand efficiency)” value on LdtMt2 [1] is recorded as 0.75. On LdtMt2 [2], the “ΔTm: difference in melting point of LdtMt2 relative to unreacted LdtMt2 (43.8 °C)” value is “+1.1” and the “Tm: melting point of LdtMt2 after pre-incubation with the compound” value is 44.9 ± 0.09.
With `N#Cn1c(-c2ccncc2)nc2ccc(-c3cccnc3)cc21` [Compound 35], the “LE (ligand efficiency)” value at LdtMt2 [1] is given as 0.49. On LdtMt2 [2], the “ΔTm: difference in melting point of LdtMt2 relative to unreacted LdtMt2 (43.8 °C)” value is on record as -0.9 and the “Tm: melting point of LdtMt2 after pre-incubation with the compound” value is listed as 42.9 ± 0.34.
Take `N#Cn1ccnc1` [Compound 41, reference compound]: the “pIC50 LdtMt2” value on LdtMt2 [1] is listed as 6.54 ± 0.01.
Still for that read-out and setting: then `N#Cn1nnc2ccccc21` [Compound 42, reference compound], with 6.02 ± 0.05.
On to `CN(C)c1cc[n+](C#N)cc1` [Compound 43, 1-cyano-4-dimethylaminopyridinium tetrafluoroborate, reference compound], for which the IC50 on LdtMt2 [1] (pIC50 LdtMt2) is 5010 nM.
Regarding `N#CSc1ccc([N+](=O)[O-])c(C(=O)O)c1` [Compound 44, 2-nitro-5-thiocyanobenzoic acid, reference compound], the IC50 on LdtMt2 [1] (Table S10 known cyanating compounds, read-out: pIC50 LdtMt2 (converted)) is 1450 nM.
On to `C[C@@H](O)[C@H]1C(=O)N2C(C(=O)O)=C(S[C@@H]3CN[C@H](CNS(N)(=O)=O)C3)[C@H](C)[C@H]12` [Doripenem, reference compound], for which the IC50 at BlaC (setting [3]) is 41.7 nM; at BlaC (setting [5]), 14.1 nM; against LdtMt2 [1] (pIC50 LdtMt2 (mean ± SD)) it was 5010 nM and 1700 nM.
Turning to `O=c1c2ccccc2[se]n1-c1ccccc1` [Ebselen], the IC50 was 1510 nM at BlaC (setting [3]), 302 nM at BlaC (setting [5]) and 214 nM on LdtMt2 [1] (setting [4]).
For the compound `C[C@@H](O)[C@H]1C(=O)N2C(C(=O)O)=C(S[C@@H]3CN[C@H](C(=O)Nc4cccc(C(=O)O)c4)C3)[C@H](C)[C@H]12` [Ertapenem, reference compound], the IC50 is 178 nM on BlaC (setting [3]), 67.6 nM at BlaC (setting [5]), 776 nM at LdtMt2 [1] (setting [4]) and 1580 nM at LdtMt2 [1] (pIC50 LdtMt2 (mean ± SD)).
Take `C[C@@H](O)[C@H]1C(=O)N2C(C(=O)O)=C([C@H]3CCCO3)S[C@H]12` [Faropenem]: the figures for the IC50 at BlaC (setting [3]) and at BlaC (setting [5]) were 447 nM and 468 nM, respectively.
For the compound `Cc1onc(-c2c(F)cccc2Cl)c1C(=O)N[C@@H]1C(=O)N2[C@@H]1SC(C)(C)[C@@H]2C(=O)O` [Flucloxacillin, reference compound], the IC50 on BlaC (setting [3]) is 135 nM; on BlaC (setting [5]), 77.6 nM; at LdtMt2 [1] (setting [4]), 1050 nM; against LdtMt2 [1] (pIC50 LdtMt2 (mean ± SD)), 25100 nM.
On to `NC(=O)CI` [Iodoacetamide, reference compound], for which the “pIC50 BlaC (mean ± SD)” value on BlaC (setting [6]) is less than 4.0. The “pIC50 LdtMt2 (mean ± SD)” value against LdtMt2 [1] is 5.8 ± 0.03; on LdtMt2 [1] (setting [7]), 6.05 ± 0.03.
As to `O=C1C=CC(=O)N1` [Maleimide, reference compound], the IC50 is greater than 100000 nM against BlaC (pIC50 BlaC (mean ± SD), Table S3 tool compounds, 10 min incubation, 2.5 nM BlaC, 2.5 µM FC5, n=4); 3980 nM and 2240 nM on LdtMt2 [1] (pIC50 LdtMt2 (mean ± SD)).
On to `C[C@@H](O)[C@H]1C(=O)N2C(C(=O)O)=C(S[C@@H]3CN[C@H](C(=O)N(C)C)C3)[C@H](C)[C@H]12` [Meropenem, reference compound], for which the IC50 is 141 nM on BlaC (setting [3]), 40.7 nM on BlaC (setting [5]), 1350 nM on LdtMt2 [1] (setting [4]) and 10000 nM on LdtMt2 [1] (pIC50 LdtMt2 (mean ± SD)).
In the same order, the values of `Cc1onc(-c2ccccc2)c1C(=O)N[C@@H]1C(=O)N2[C@@H]1SC(C)(C)[C@@H]2C(=O)O` [Oxacillin, reference compound] are 158 nM, 67.6 nM, 6030 nM and 63100 nM.
With `CCC(C)SSc1ncc[nH]1` (stereo not drawn) [PX-12, reference compound], on BlaC (setting [6]), the “pIC50 BlaC (mean ± SD)” value is on record as less than 4.0. Besides, the “pIC50 LdtMt2 (mean ± SD)” value against LdtMt2 [1] was 5.9 ± 0.01 and 6.09 ± 0.03.
With `CC(=N)N1CC[C@H](SC2=C(C(=O)O)N3C(=O)[C@H]([C@@H](C)O)[C@H]3C2)C1` [Panipenem, reference compound], the IC50 on BlaC (setting [3]) is 166 nM; at BlaC (setting [5]), 93.3 nM; on LdtMt2 [1] (setting [4]), 1230 nM; against LdtMt2 [1] (pIC50 LdtMt2 (mean ± SD)), 316 nM.
Turning to `O=C(NC1CCNCC1)[C@@H]1CC[C@@H]2CN1C(=O)N2OS(=O)(=O)O` [Relebactam], the IC50 is 33100 nM at BlaC (setting [3]), 3980 nM at BlaC (setting [5]) and greater than 100000 nM on LdtMt2 [1] (pIC50 LdtMt2 (mean ± SD)).
Take `C[C@@H](O)[C@H]1C(=O)N2C(C(=O)O)=C(S[C@H]3CC[S@@+]([O-])C3)S[C@H]12` [Sulopenem, reference compound]: the “pIC50 BlaC (mean ± SD)” value was determined as 6.60 ± 0.12 at BlaC (setting [6]) and 6.86 ± 0.02 on BlaC (Table S4 HTS validation, 30 minutes inhibitor pre-incubation, n=8). Moreover, the “pIC50 LdtMt2 (mean ± SD)” value against LdtMt2 [1] worked out at 6.2 ± 0.03; against LdtMt2 [1] (setting [7]), 6.35 ± 0.02.
As for `CN(C)C(=S)SSC(=S)N(C)C` [Thiram, reference compound], the IC50 on BlaC (setting [3]) is greater than 100000 nM; at LdtMt2 [1] (setting [4]), 170 nM; at LdtMt2 [1] (pIC50 LdtMt2 (mean ± SD)), 158 nM.
With `CC1(C)S[C@@H]2[C@H](NC(=O)[C@H](C(=O)O)c3ccsc3)C(=O)N2[C@H]1C(=O)O` [Ticarcillin, reference compound], the IC50 at BlaC (setting [3]) is 11700 nM; on BlaC (setting [5]), 14500 nM; at LdtMt2 [1] (setting [4]), 44700 nM; on LdtMt2 [1] (pIC50 LdtMt2 (mean ± SD)), greater than 100000 nM.
As to `O=C(NNC(=O)[C@@H]1CC[C@@H]2CN1C(=O)N2OS(=O)(=O)O)[C@@H]1CCCNC1` [Zidebactam, reference compound], the IC50 at BlaC (setting [3]) was 70800 nM; on BlaC (setting [5]), 7240 nM; at LdtMt2 [1] (setting [4]), 13200 nM; against LdtMt2 [1] (pIC50 LdtMt2 (mean ± SD)), 100000 nM.
